Measured values from patent US20240209011A1, “HETEROAROMATIC PHOSPHONIUM SALTS FOR TREATING CANCER” (FLORATEK PHARMA S.A., priority 2021, published 2024).

Tested on: HCC1806
Assay: Cell viability assay (CellTiter-Blue/CellTiter-Glow)
Format: cell-based
Settings: Homo sapiens; breast carcinoma cell line HCC1806; absolute IC50; 72 h
In short: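 Readout: CellTiter-Blue (ex 570/em 600 nm) or CellTiter-Glo luminescence after 72 h compound exposure. 5–6 half-log concentrations, top 30 or 100 μM, duplicate/triplicate, DMSO <0.3%. IC50 = absolute, 4-parameter fit at T/C=50%.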

## O=c1cc(-c2ccc(CCCC[P+](c3ccccc3)(c3ccccc3)c3ccccc3)cc2)oc2c3c(ccc12)OCO3.[Br-] [SND123, 4-[4-(6-oxo-[1,3]dioxolo[4,5-h]chromen-8-yl)phenyl]butyl-triphenylphosphonium bromide]
  IC50: 2300 nM
